# How the values were obtained:
# [1] = molecular target: T1, Cholesteryl ester transfer protein (Homo sapiens, UniProt P11597); assay: Inhibition of human recombinant CETP using [3H]-CE/HDL by scintillation proximity assay
# T1 sequence (P11597 whole entry): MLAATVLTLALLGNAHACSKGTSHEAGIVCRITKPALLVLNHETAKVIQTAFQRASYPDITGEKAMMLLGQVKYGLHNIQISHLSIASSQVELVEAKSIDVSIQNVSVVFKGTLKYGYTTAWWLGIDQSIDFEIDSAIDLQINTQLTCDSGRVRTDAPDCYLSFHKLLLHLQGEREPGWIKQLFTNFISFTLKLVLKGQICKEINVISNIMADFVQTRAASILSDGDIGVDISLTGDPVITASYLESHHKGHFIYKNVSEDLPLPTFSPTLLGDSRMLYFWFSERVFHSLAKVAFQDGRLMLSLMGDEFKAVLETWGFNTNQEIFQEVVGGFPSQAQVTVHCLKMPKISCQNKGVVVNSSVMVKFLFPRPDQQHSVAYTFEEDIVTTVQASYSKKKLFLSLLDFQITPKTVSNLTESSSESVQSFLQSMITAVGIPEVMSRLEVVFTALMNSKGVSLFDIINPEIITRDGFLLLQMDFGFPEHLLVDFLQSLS
# [2] = molecular target: T1, Cholesteryl ester transfer protein; assay: Inhibition of CETP in human whole plasma using [3H]-CE/HDL after 10 mins
IC50 [1],IC50 [2],Structure (SMILES)
32 µM,–,COC(=O)c1sc(NC(Cc2ccccc2)(c2cc(F)cc(C(F)(F)F)c2)c2ccc(Cl)cn2)nc1C (stereo not drawn)
0.1 µM,–,Fc1cc(C(F)(F)F)cc(C(Cc2ccccc2)(Nc2nc(C(F)(F)F)c(Br)s2)c2ccc(Cl)cn2)c1 (stereo not drawn)
1.2 µM,–,Fc1cc(C(F)(F)F)cc(C(Cc2ccccc2)(Nc2nc(C(F)(F)F)cs2)c2ccc(Cl)cn2)c1 (stereo not drawn)
7.5 µM,–,CC(C)(C)c1csc(NC(Cc2ccccc2)(c2cc(F)cc(C(F)(F)F)c2)c2ccc(Cl)cn2)n1 (stereo not drawn)
0.7 µM,–,CCc1csc(NC(Cc2ccccc2)(c2cc(F)cc(C(F)(F)F)c2)c2ccc(Cl)cn2)n1 (stereo not drawn)
1.1 µM,–,Cc1cnc(NC(Cc2ccccc2)(c2cc(F)cc(C(F)(F)F)c2)c2ccc(Cl)cn2)s1 (stereo not drawn)
11 µM,–,Cn1nnc(NC(Cc2ccccc2)(c2cc(F)cc(C(F)(F)F)c2)c2ccc(Cl)cn2)n1 (stereo not drawn)
0.5 µM,23 µM,Fc1cc(C(F)(F)F)cc(C(Cc2ccccc2)(Nc2nc3ccccc3s2)c2ccc(Cl)cn2)c1 (stereo not drawn)
2 µM,–,Fc1cc(C(F)(F)F)cc(C(Cc2ccccc2)(Nc2nc3ccccc3o2)c2ccc(Cl)cn2)c1 (stereo not drawn)
0.2 µM,19.6 µM,Fc1cc(C(F)(F)F)cc(C(Cc2ccccc2)(Nc2nc3ccccc3[nH]2)c2ccc(Cl)cn2)c1 (stereo not drawn)
> 32 µM,–,Fc1cc(C(F)(F)F)cc(C(Cc2ccccc2)(Nc2nnc(-c3ccccc3)[nH]2)c2ccc(Cl)cn2)c1 (stereo not drawn)
12 µM,–,Fc1cc(C(F)(F)F)cc(C(Cc2ccccc2)(Nc2ncc(-c3ccccc3)o2)c2ccc(Cl)cn2)c1 (stereo not drawn)
0.2 µM,20.2 µM,Fc1cc(C(F)(F)F)cc(C(Cc2ccccc2)(Nc2nc3c(s2)CCCC3)c2ccc(Cl)cn2)c1 (racemic)
0.4 µM,29.5 µM,Cc1nc(NC(Cc2ccccc2)(c2cc(F)cc(C(F)(F)F)c2)c2ccc(Cl)cn2)sc1C (racemic)
